Experimental data as given in PubChem BioAssay (NCI).
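Growth conditions: 96-well plates. Treatment: test compound, 48 hours, 5 concentrations. Analysis: linear interpolation between bracketing concentrations; unreached endpoints set to highest concentration. Abbreviation: GI50, concentration required for 50% inhibition of growth. TGI marks complete inhibition of growth.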

What was measured:
Assay in all cases: growth of human tumour cells (NCI), 48 h
NCI-H23 lung = test system: NCI-H23 lung
NCI-H460 lung = test system: NCI-H460 lung
NCI-H522 lung = test system: NCI-H522 lung
NCI/ADR-RES ovarian = test system: NCI/ADR-RES ovarian
OVCAR-3 ovarian = test system: OVCAR-3 ovarian
OVCAR-4 ovarian = test system: OVCAR-4 ovarian
OVCAR-5 ovarian = test system: OVCAR-5 ovarian
OVCAR-8 ovarian = test system: OVCAR-8 ovarian
PC-3 prostate = test system: PC-3 prostate
RPMI-8226 leukemia = test system: RPMI-8226 leukemia
RXF 393 renal = test system: RXF 393 renal
SF-268 CNS = test system: SF-268 CNS
SF-295 CNS = test system: SF-295 CNS
SF-539 CNS = test system: SF-539 CNS
SK-MEL-2 melanoma = test system: SK-MEL-2 melanoma
SK-MEL-28 melanoma = test system: SK-MEL-28 melanoma
SK-MEL-5 melanoma = test system: SK-MEL-5 melanoma
SK-OV-3 ovarian = test system: SK-OV-3 ovarian
SN12C renal = test system: SN12C renal
SNB-19 CNS = test system: SNB-19 CNS
SNB-75 CNS = test system: SNB-75 CNS
SR leukemia = test system: SR leukemia
SW-620 colon = test system: SW-620 colon
T-47D breast = test system: T-47D breast
TK-10 renal = test system: TK-10 renal
U251 CNS = test system: U251 CNS
UACC-257 melanoma = test system: UACC-257 melanoma
UACC-62 melanoma = test system: UACC-62 melanoma
UO-31 renal = test system: UO-31 renal

CCN1C(C)(C)CC(Oc2ccc(C(=O)Nc3ccc(NC(=O)Nc4cc(C(C)(C)C)on4)cc3)nc2)CC1(C)C
GI50 (NCI-H23 lung): 3.64 µM | TGI (NCI-H23 lung): 20.1 µM | GI50 (NCI-H460 lung): 1.89 µM | TGI (NCI-H460 lung): 3.69 µM | GI50 (NCI-H522 lung): 1.82 µM | TGI (NCI-H522 lung): 4.23 µM | GI50 (NCI/ADR-RES ovarian): 2.48 µM | TGI (NCI/ADR-RES ovarian): > 22.6 µM | GI50 (OVCAR-3 ovarian): 1.78 µM | TGI (OVCAR-3 ovarian): 3.86 µM | GI50 (OVCAR-4 ovarian): 5.23 µM | TGI (OVCAR-4 ovarian): 25.9 µM | GI50 (OVCAR-5 ovarian): 2.94 µM | TGI (OVCAR-5 ovarian): 11.4 µM | GI50 (OVCAR-8 ovarian): 2.29 µM | TGI (OVCAR-8 ovarian): 5.66 µM | GI50 (PC-3 prostate): 2.88 µM | TGI (PC-3 prostate): 8.82 µM | GI50 (RPMI-8226 leukemia): 1.96 µM | TGI (RPMI-8226 leukemia): 4.72 µM | GI50 (RXF 393 renal): 1.64 µM | TGI (RXF 393 renal): 3.36 µM | GI50 (SF-268 CNS): 2.39 µM | TGI (SF-268 CNS): 7.71 µM | GI50 (SF-295 CNS): 1.67 µM | TGI (SF-295 CNS): 3.27 µM | GI50 (SF-539 CNS): 1.15 µM | TGI (SF-539 CNS): 2.62 µM | GI50 (SK-MEL-2 melanoma): 2.09 µM | TGI (SK-MEL-2 melanoma): 4.89 µM | GI50 (SK-MEL-28 melanoma): 1.8 µM | TGI (SK-MEL-28 melanoma): 3.63 µM | GI50 (SK-MEL-5 melanoma): 1.68 µM | TGI (SK-MEL-5 melanoma): 3.22 µM | GI50 (SK-OV-3 ovarian): 6.03 µM | TGI (SK-OV-3 ovarian): 15.9 µM | GI50 (SN12C renal): 1.66 µM | TGI (SN12C renal): 3.4 µM | GI50 (SNB-19 CNS): 2.64 µM | TGI (SNB-19 CNS): 11.2 µM | GI50 (SNB-75 CNS): 1.35 µM | TGI (SNB-75 CNS): 3.44 µM | GI50 (SR leukemia): 2.28 µM | TGI (SR leukemia): 4.91 µM | GI50 (SW-620 colon): 2.1 µM | TGI (SW-620 colon): 4.37 µM | GI50 (T-47D breast): 2.34 µM | TGI (T-47D breast): 7.2 µM | GI50 (TK-10 renal): 5.49 µM | TGI (TK-10 renal): 14 µM | GI50 (U251 CNS): 1.68 µM | TGI (U251 CNS): 3.58 µM | GI50 (UACC-257 melanoma): 2.2 µM | TGI (UACC-257 melanoma): 4.02 µM | GI50 (UACC-62 melanoma): 1.76 µM | TGI (UACC-62 melanoma): 3.51 µM | GI50 (UO-31 renal): 1.67 µM | TGI (UO-31 renal): 4.25 µM
